# Biological target: T1, NCEH1 (Mus musculus, UniProt Q8BLF1)
# T1 construct: For murine proteomes, mouse tissues were Dounce-homogenized on ice in cold PBS; from tissue; host or cells: athymic nude mice: heart, kidney, lung, liver, brain, spleen and other organs
# T1 sequence (Q8BLF1 1-408): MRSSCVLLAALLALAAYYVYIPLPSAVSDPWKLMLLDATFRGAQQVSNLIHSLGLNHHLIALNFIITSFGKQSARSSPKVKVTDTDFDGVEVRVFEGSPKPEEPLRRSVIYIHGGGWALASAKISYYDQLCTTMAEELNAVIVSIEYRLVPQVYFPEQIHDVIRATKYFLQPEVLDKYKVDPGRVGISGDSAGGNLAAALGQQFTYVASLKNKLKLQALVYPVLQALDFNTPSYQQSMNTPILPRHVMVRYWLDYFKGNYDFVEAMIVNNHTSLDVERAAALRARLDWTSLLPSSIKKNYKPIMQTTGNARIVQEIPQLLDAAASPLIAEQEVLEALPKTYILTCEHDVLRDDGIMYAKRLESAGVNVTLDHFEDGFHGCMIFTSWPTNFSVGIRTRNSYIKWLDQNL
# Experiment: In vivo microPET/CT imaging and ex vivo biodistribution in nude mice
# Protocol: In vivo microPET/CT imaging: All imaging was performed by the Integrated Small Animal Imaging Research Resource (iSAIRR) at the University of Chicago (Chicago, Illinois, United States of America) on a β-Cube and X-Cube (Molecubes NV, Ghent, Belgium). […] MicroCT images were acquired using the general purpose protocol, with energy of 50 KeV and a tube current of 100 μA. Respiration rate and body temperature of the animal were constantly monitored during the entire scanning period with the p-Cube and X-Cube onboard monitoring system. A 1 hr dynamic PET acquisition was started 2 hours after [^18F]JW199 injection. Dynamic reconstruction was performed for 6 frames of 10 minutes each using a three-dimensional (3D) OSEM algorithm with 400 μm isometric voxel size. For competition studies, mice were pretreated with either 80 mg/kg JW480 or vehicle (polyethylene glycol 300 (PEG300)) via oral gavage, followed 4 hours later by dosing with [^18F]JW199 and imaging as described. For the MDA-MB231 study, [^18F]JW199 injection was followed immediately by dynamic PET acquisition (90 min) and microCT scanning as detailed above. Dynamic PET image reconstruction included 9 frames of 10 minutes each.
# Dynamic reconstruction was performed using a three-dimensional OSEM algorithm with 400 μm isometric voxel size. All image analysis was performed with software sold under the tradename VivoQuant™ (inviCRO, LLC, Boston, Massachusetts, United States of America). 3D regions of interest (ROIs) were drawn and standardized uptake values (SUVs) and percent injected dose per cubic centimeter of tissue (% ID/cc) were calculated for each ROI and time point. % ID/cc was calculated as a ratio of tissue radioactivity concentration (mCi/g) at time of scan to total injected activity (millicurie (mCi)) at time of scan.
# Ex vivo Biodistribution: All animals were sacrificed at 3 hours post [^18F]JW199 injection and organs and tumors were immediately harvested. All tissues were weighed, and radioactivity was counted using a Cobra II […] (PerkinElmer, Waltham, Massachusetts, United States of America) calibrated for [^18F] energy. The concentration of radioactivity in tumor, organs, and tissues was determined as percentage of injected dose per cubic centimeter of tissue (% ID/cc).
compound,measurement,setting,value
"CC(C)c1ccccc1OC(=O)NCCc1ccc(OCC[18F])cc1 [[^18F]JW199, fluorine-18-labeled 2-isopropylphenyl-(4-(2-fluoroethoxy)phenethyl)carbamate]",PET signal kinetics in target organs,during the entire imaging procedure,quickly reached and maintained constant levels
same,PET signal in the brain,i.v.,low PET signal
same,CNS penetration,"i.v., inferred from brain PET signal",low CNS penetration
same,"uptake in adipose depots, liver and bone","i.v., tissues with low Nceh1 mRNA levels",relatively low uptake
same,"PET signal accumulation in kidney, heart and lung","i.v., ~100 μCi, tissues with relatively high Nceh1 expression",Significant signal accumulation
same,accumulation in mouse tissues,"mouse, in vivo","rapid, NCEH1-dependent accumulation"

# Reference: patent publication US12138320B2, “Composition and methods for tumor imaging and treatment” (The University of Chicago, priority 2020, dated 2024)
